In one data set the test system is HDAC. Put plainly: HDAC fluorimetric assay (HDAC enzymatic activity, HeLa nuclear extract). The data set is classed as biochemical. The settings on record: for IC50: HeLa nuclear extract, read-out: HDAC IC50 grading. The procedure: HDAC inhibitors were screened using an HDAC fluorimetric assay kit (AK-500, Biomol, Plymouth Meeting, Pa.).
Each assay was setup as follows: Defrosted all kit components and kept on ice until use. […] Prepared dilutions of Trichostatin A (TSA, positive control) and tested compounds in assay buffer (5× of final concentration). Diluted Fluor de Lys™ Substrate in assay buffer to 100 uM (50 fold=2× final). Diluted Fluor de Lys™ developer concentrate 20-fold (e.g. 50 μl plus 950 μl Assay Buffer) in cold assay buffer. Second, diluted the 0.2 mM Trichostatin A 100-fold in the 1× Developer (e.g. 10 μl in 1 ml; final Trichostatin A concentration in the 1× Developer=2 μM; final concentration after addition to HDAC/Substrate reaction=1 μM). Added Assay buffer, diluted trichostatin A or test inhibitor to appropriate wells of the microtiter plate. Added diluted HeLa extract or other HDAC sample to all wells except for negative controls.

A further data set has as its target T1, HER2 (Homo sapiens, UniProt P04626).
T1 construct: human HER2 amino acids 679-1255; host or cells: baculovirus in Sf9 insect cells
Put plainly: Radioisotope assay for HER2. The data set is classed as biochemical. The conditions noted are these: read-out: HER2/ErB2 IC50 grading. On the procedure:
Protocol for Radioisotope Assay for HER2
10 nM HER2 and 0.1 mg/ml polyEY were placed in the reaction buffer and 2 mM MnCl2, 1 μM ATP and 1% DMSO final were added. The reaction mixture was incubated for 2 hours at room temperature.
MW=91.6 kDa. […] Enzyme is in 25 mM Tris-HCl, pH 8.0, 100 mM NaCl, 0.05% Tween-20, 50% glycerol, 10 mM reduced glutathione, and 3 mM DTT.

A further data set has as its target T2, human EGFR (Homo sapiens, UniProt P00533).
T2 construct: human EGFR (His672-Ala1210); purchased Cell Signaling Technologies; host or cells: baculovirus expression system
Put plainly: HTScan EGF Receptor Kinase Assay. The data set is classed as biochemical. The settings on record: for IC50: read-out: EGFR IC50 grading. The procedure:
The ability of compounds to inhibit receptor kinase (EGFR) activity was assayed using HTScan™ EGF Receptor Kinase Assay Kits (Cell Signaling Technologies, Danvers, Mass.). […] The protein was purified by one-step affinity chromatography using glutathione-agarose.
Immediately transfer enzyme from −80° C. to ice. Allowed enzyme to thaw on ice. […] Returned immediately to ice. […] Incubated reaction plate at room temperature for 30 minutes. […] Added 100 μl/well primary antibody. Incubated at room temperature for 60 minutes. […] Added 100 μl/well diluted antibody. Incubated at room temperature for 30 minutes. […] Incubated at room temperature for 5 minutes.

The values below come from patent US8604044B2, “Quinazoline based EGFR inhibitors containing a zinc binding moiety” (Curis, Inc., priority 2006, dated 2013).

T2 sequence (P00533 672-1210): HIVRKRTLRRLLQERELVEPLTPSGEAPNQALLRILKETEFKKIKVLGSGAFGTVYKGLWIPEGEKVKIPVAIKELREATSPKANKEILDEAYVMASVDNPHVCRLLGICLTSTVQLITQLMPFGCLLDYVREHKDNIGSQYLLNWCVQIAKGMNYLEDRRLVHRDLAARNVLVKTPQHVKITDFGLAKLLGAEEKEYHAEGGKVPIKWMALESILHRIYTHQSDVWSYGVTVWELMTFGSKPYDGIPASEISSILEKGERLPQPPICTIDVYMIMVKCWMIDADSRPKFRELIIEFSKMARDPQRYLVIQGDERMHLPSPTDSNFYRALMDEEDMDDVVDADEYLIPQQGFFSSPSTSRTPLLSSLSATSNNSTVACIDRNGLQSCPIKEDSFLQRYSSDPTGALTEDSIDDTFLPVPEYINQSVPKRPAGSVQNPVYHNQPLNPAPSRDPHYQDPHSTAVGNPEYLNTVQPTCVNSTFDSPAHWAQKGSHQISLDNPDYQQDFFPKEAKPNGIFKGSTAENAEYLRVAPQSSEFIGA
T1 sequence (P04626 679-1255): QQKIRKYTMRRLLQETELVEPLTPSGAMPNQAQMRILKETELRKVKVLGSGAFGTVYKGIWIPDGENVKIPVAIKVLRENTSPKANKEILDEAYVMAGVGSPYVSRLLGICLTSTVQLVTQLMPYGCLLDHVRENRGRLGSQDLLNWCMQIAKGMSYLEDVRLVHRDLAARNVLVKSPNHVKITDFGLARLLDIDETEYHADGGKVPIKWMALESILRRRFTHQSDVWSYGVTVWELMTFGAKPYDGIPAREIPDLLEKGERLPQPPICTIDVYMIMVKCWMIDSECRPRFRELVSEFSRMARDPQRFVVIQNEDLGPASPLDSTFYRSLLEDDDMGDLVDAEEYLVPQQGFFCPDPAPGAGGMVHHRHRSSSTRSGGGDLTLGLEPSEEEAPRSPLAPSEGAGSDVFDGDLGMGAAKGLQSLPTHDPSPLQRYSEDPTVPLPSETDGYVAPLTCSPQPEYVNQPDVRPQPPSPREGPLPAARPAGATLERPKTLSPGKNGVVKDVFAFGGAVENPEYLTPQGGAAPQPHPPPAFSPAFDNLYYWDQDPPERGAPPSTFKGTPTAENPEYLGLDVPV

Regarding `COc1cc2ncnc(NCc3ccccc3)c2cc1OCCCCCCC(=O)NO` [Compound 85, 7-(4-(Benzylamino)-7-methoxyquinazolin-6-yloxy)-N-hydroxyheptanamide], the IC50 with HDAC is less than 100 nM; on HER2 it was 100 to 1000 nM.
For the compound `COc1cc2ncnc(Nc3ccc(F)c(Cl)c3)c2cc1SCCCCCCC(=O)NO` [Compound 155, 7-(4-(3-Chloro-4-fluorophenylamino)-7-methoxyquinazolin-6-ylthio)-N-hydroxyheptanamide], the IC50 on human EGFR and at HER2 was less than 100 nM each time.
As to `COc1cc2ncnc(N[C@H](C)c3ccccc3)c2cc1OCCCCCCC(=O)NO` [Compound 79, (R)—N-hydroxy-7-(7-methoxy-4-(1-phenylethylamino)quinazolin-6-yloxy)heptanamide], the IC50 with HDAC is less than 100 nM; at HER2 it was 100 to 1000 nM.
For `COCCOc1cc2ncnc(Nc3ccc(F)c(Cl)c3)c2cc1OCCCCCCC(=O)NO` [Compound 30, 7-(4-(3-Chloro-4-fluorophenylamino)-7-(2-methoxyethoxy)quinazolin-6-yloxy)-N-hydroxyheptanamide] the same measures were less than 100 nM and 100 to 1000 nM.
Taken in the same sequence, the figures for `C#Cc1cc(Nc2ncnc3cc(OCCOC)c(OCCCCCCC(=O)NO)cc23)ccc1F` [Compound 76] were less than 100 nM and 100 to 1000 nM.
For the compound `C#Cc1cc(Nc2ncnc3cc(OC)c(OCCCCCCC(=O)NO)cc23)ccc1O` [Compound 206], the IC50 at human EGFR, in the data set with HDAC and on HER2 was less than 100 nM throughout.
In the case of `C#Cc1cccc(Nc2ncnc3cc(OCCCCCCC(=O)NO)c(OC)cc23)c1` [Compound 162, 7-(4-(3-ethynylphenylamino)-6-methoxyquinazolin-7-yloxy)-N-hydroxyheptanamide], the IC50 on human EGFR is less than 100 nM; in the data set on HDAC, less than 100 nM; at HER2 it was 100 to 1000 nM.
In the case of `C#Cc1cccc(Nc2ncnc3ccc(OCCCCCC(=O)NO)cc23)c1` [Compound 23, 6-(4-(3-ethynylphenylamino)quinazolin-6-yloxy)-N-hydroxyhexanamide], the melting point (commonly the temperature, or range, at which the solid turns liquid) fell in the range of 176 to 182 °C. The IC50 with HDAC is less than 100 nM.
For `C#Cc1cccc(Nc2ncnc3cc(OC)c(OCCCCCC(=O)NO)cc23)c1` [Compound 11, 6-(4-(3-ethynylphenylamino)-7-methoxyquinazolin-6-yloxy)-N-hydroxyhexanamide], the figures for the IC50 in the data set with HDAC and on HER2 were less than 100 nM and 100 to 1000 nM, respectively.
With `COc1cc2ncnc(Nc3ccc(F)c(Cl)c3)c2cc1OCCCCCCN(O)C(N)=O` [Compound 102], the IC50 at human EGFR was less than 100 nM.
With `COc1cc2ncnc(Nc3ccc(F)c(Cl)c3)c2cc1NC(=O)CCCCCCC(=O)NO` [Compound 40, N^1-(4-(3-chloro-4-fluorophenylamino)-7-methoxyquinazolin-6-yl)-N^8-hydroxyoctanediamide], the IC50 is less than 100 nM in the data set with HDAC and 100 to 1000 nM at HER2.
Taken in the same sequence, the figures for `COc1cc2c(Nc3ccc(F)c(Cl)c3)ncnc2cc1OCCCCCCC(=O)NO` [Compound 161, 7-(4-(3-chloro-4-fluorophenylamino)-6-methoxyquinazolin-7-yloxy)-N-hydroxyheptanamide] were less than 100 nM and 100 to 1000 nM.
As to `COc1cc2ncnc(Nc3ccc(OCc4cccc(F)c4)c(Cl)c3)c2cc1OCCCCCCC(=O)NO` [Compound 199, 7-(4-(3-chloro-4-(3-fluorobenzyloxy)phenylamino)-7-methoxyquinazolin-6-yloxy)-N-hydroxyheptanamide], the IC50 at human EGFR, in the data set on HDAC and at HER2 was less than 100 nM throughout.
Compound `C#Cc1cccc(Nc2ncnc3ccc(OCCCC(=O)NO)cc23)c1` [Compound 21, 4-(4-(3-ethynylphenylamino)quinazolin-6-yloxy)-N-hydroxybutanamide] showed a melting point of 182 to 186 °C. For the same compound, the IC50 in the data set on HDAC lay in the range of 1000 to 10000 nM.
Taken in the same sequence, the figures for `O=C(CCCCCCNCc1ccc(-c2ccc3ncnc(Nc4ccc(OCc5cccc(F)c5)c(Cl)c4)c3c2)o1)NO` [Compound 178, 7-((5-(4-(3-chloro-4-(3-fluorobenzyloxy)phenylamino)quinazolin-6-yl)furan-2-yl)methylamino)-N-hydroxyheptanamide] were 120 °C and 100 to 1000 nM.
Compound `O=C(CCNCc1ccc(-c2ccc3ncnc(Nc4ccc(OCc5cccc(F)c5)c(Cl)c4)c3c2)o1)NO` [Compound 174, 3-((5-(4-(3-Chloro-4-(3-fluorobenzyloxy)phenylamino)quinazolin-6-yl)furan-2-yl)methylamino)-N-hydroxypropanamide] displayed a melting point of 170 °C. In the data set with HDAC, the IC50 is greater than 10000 nM.
With `O=C(CCCCCCOc1ccc2ncnc(Nc3ccc(OCc4cccc(F)c4)c(Cl)c3)c2c1)NO` [Compound 198, 7-(4-(3-chloro-4-(3-fluorobenzyloxy)phenylamino)quinazolin-6-yloxy)-N-hydroxyheptanamide], the IC50 on human EGFR, in the data set on HDAC and on HER2 was less than 100 nM throughout.
For `C#Cc1cccc(Nc2ncnc3cc(OCCCCCCC(=O)NO)c(OCCOC)cc23)c1` [Compound 168, 7-(4-(3-ethynylphenylamino)-6-(2-methoxyethoxy)quinazolin-7-yloxy)-N-hydroxyheptanamide], the results for the IC50 at human EGFR, in the data set with HDAC and at HER2 were less than 100 nM, less than 100 nM and 100 to 1000 nM, respectively.
Regarding `O=C(CCCCCCOc1ccc2ncnc(Nc3ccc(F)c(Cl)c3)c2c1)NO` [Compound 18, 7-(4-(3-chloro-4-fluorophenylamino)quinazolin-6-yloxy)-N-hydroxyheptanamide], the values for the IC50 with HDAC and on HER2 were less than 100 nM and 100 to 1000 nM, respectively.
For `C#Cc1cccc(Nc2ncnc3cc(OC)c(NC(=O)CCCCCCC(=O)NO)cc23)c1` [Compound 44, N^1-(4-(3-ethynylphenylamino)-7-methoxyquinazolin-6-yl)-N^8-hydroxyoctanediamide] the same measures were less than 100 nM and 100 to 1000 nM.
As for `COc1cc2ncnc(Nc3ccc(F)c(Cl)c3)c2cc1SCCCCC(=O)NO` [Compound 151, 5-(4-(3-chloro-4-fluorophenylamino)-7-methoxyquinazolin-6-ylthio)-N-hydroxypentanamide], the IC50 on human EGFR and at HER2 was less than 100 nM each time.
As to `O=C(CCCCCCCNCc1ccc(-c2ccc3ncnc(Nc4ccc(OCc5cccc(F)c5)c(Cl)c4)c3c2)o1)NO` [Compound 201], the IC50 on human EGFR was less than 100 nM; in the data set on HDAC it was 100 to 1000 nM; on HER2, less than 100 nM.
Consider `COCCOc1cc2ncnc(Nc3ccc(F)c(Cl)c3)c2cc1NC(=O)CCCCCCC(=O)NO` [Compound 70, N^1-(4-(3-chloro-4-fluorophenylamino)-7-(2-methoxyethoxy)quinazolin-6-yl)-N^8-hydroxyoctanediamide], for which the IC50 at HER2 is less than 100 nM.
Take `COCCOc1cc2ncnc(Nc3ccc(OCc4cccc(F)c4)c(Cl)c3)c2cc1OCCCCCCC(=O)NO` [Compound 200]: the IC50 on human EGFR, in the data set on HDAC and on HER2 was less than 100 nM throughout.
Turning to `COCCOc1cc2c(Nc3ccc(F)c(Cl)c3)ncnc2cc1OCCCCCCC(=O)NO` [Compound 167, 7-(4-(3-chloro-4-fluorophenylamino)-6-(2-methoxyethoxy)quinazolin-7-yloxy)-N-hydroxyheptanamide], the IC50 on human EGFR was less than 100 nM; with HDAC, less than 100 nM; at HER2, 100 to 1000 nM.
With `C#Cc1cc(Nc2ncnc3cc(OC)c(OCCCCCCC(=O)NO)cc23)ccc1F` [Compound 75, 7-(4-(3-ethynyl-4-fluorophenylamino)-7-methoxyquinazolin-6-yloxy)-N-hydroxyheptanamide], the IC50 with HDAC was less than 100 nM; at HER2, 100 to 1000 nM.
Take `C#Cc1cccc(Nc2ncnc3cc(O)c(OCCCCCCC(=O)NO)cc23)c1` [Compound 207]: the IC50 at human EGFR and at HER2 was less than 100 nM in each case.
For `C#Cc1cccc(Nc2ncnc3cc(OC)c(OCC(=O)NO)cc23)c1` [Compound 7, 2-(4-(3-ethynylphenylamino)-7-methoxyquinazolin-6-yloxy)-N-hydroxyacetamide], the figures for the IC50 in the data set on HDAC and at HER2 were greater than 10000 nM and less than 100 nM, respectively.
For the compound `COc1cc2ncnc(Nc3ccc(F)c(Cl)c3)c2cc1OCCCCCCC(=O)NO` [Compound 6, 7-(4-(3-Chloro-4-fluorophenylamino)-7-methoxyquinazolin-6-yloxy)-N-hydroxyheptanamide], the “activity in EFGR enzyme assay compared with erlotinib” value on human EGFR (FIG. 1) is recorded as “more active”. Further, in the data set with HDAC (FIG. 1), the “activity in HDAC enzyme assay compared with SAHA” value is reported as “more active”. The IC50 in the data set with HDAC and on HER2 was less than 100 nM in each case.
